The record followed here is ChEMBL document CHEMBL1142677, “Synthesis, antitumor evaluation, and apoptosis-inducing activity of hydroxylated (E)-stilbenes” (2005).

Bounds are passed on as bounds.

Assay [1] in a line: In vitro growth inhibitory concentration against human mammary carcinoma cell line MDA MB 468 using MTT assay. In kind it is functional.
The nature of assay [2]: Percent of apoptosis in MDA MB 468 Cell line determined by Annexin-V-FITC/PI analysis at 10 uM. Format: functional, Homo sapiens.
Assay [3] can be described thus: Percent of apoptosis in MDA MB 468 Cell line determined by Annexin-V-FITC/PI analysis at 250 nM. In kind it is functional, Homo sapiens.
The test system of a further assay is HCT-116. In words: In vitro growth inhibitory concentration against human colon cancer cell line HCT 116. In kind it is functional.
Assay [4] is described as follows: In vitro growth inhibitory concentration against human mammary carcinoma cell line MDA MB 468. In kind it is functional.

`COc1cc(/C=C/c2cccc(O)c2)cc(OC)c1` returned a 50% growth inhibitory concentration (GI50) in assay [1] of 960 nM.

In assay [1], `Oc1ccccc1/C=C/c1ccc(F)c(F)c1` returned a 50% growth inhibitory concentration (GI50) of 1100 nM.

As to `Oc1cccc(/C=C/c2ccc(F)c(F)c2)c1`, the 50% growth inhibitory concentration (GI50) in assay [1] stood at 1600 nM.

As to `COc1ccccc1/C=C/c1cccc(O)c1`, the Apoptosis in assay [2] was 20%.

In assay [1], `Oc1cccc(/C=C/c2ccccc2F)c1` gave a GI50 of 1400 nM.

For the compound `CC[C@@]1(O)C(=O)OCc2c1cc1n(c2=O)Cc2cc3ccccc3nc2-1` [CAMPTOTHECIN], the Apoptosis in assay [3] was 37%.

In turn, `Oc1ccc(/C=C/c2cc(O)cc(O)c2)cc1` [RESVERATROL] registered an Apoptosis in assay [2] of 4%. For the same compound, the GI50 (in the assay with HCT-116; in assay [4]) was above 40000 nM throughout.
